Test in all cases: NCI-60 cell line screen, 48 h
In test [1] the test system is MALME-3M melanoma.
Test [2] deals with RXF 393 renal.
The test system of test [3] is CCRF-CEM leukemia.
The test system of test [4] is MCF7 breast.
For test [5], the system named is SW-620 colon.
Test [6] relates to SR leukemia.
The subject of test [7] is K-562 leukemia.
In test [8] the test system is HOP-62 NSCLC.
Test [9] concerns SF-539 CNS.
For test [10], the system named is KM12 colon.

SMILES strings stand for the structures.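 In this assay, cells in 96-well plates receive the compound at five concentrations for 48 hours. Endpoints are linearly interpolated between the surrounding concentrations. TGI denotes the concentration required for complete inhibition of growth.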

For `CC1(CNCc2ccccc2)CC(CCc2ccccc2)N(C(=O)c2ccc([N+](=O)[O-])cc2)C1Cc1ccc(O)cc1` (stereo not given), the TGI in test [1] is 33.6 µM; in test [2], 17.4 µM; in test [3] it was above 100 µM; in [4] it was 19.2 µM; in [5], 86 µM; in test [6], above 100 µM. Further, the TGI in test [7] was above 100 µM; in test [8], 31.1 µM; in test [9], 35.2 µM; in test [10], 36.2 µM.

(Values after PubChem BioAssay (NCI).)
